Experimental findings from patent publication US20040213766A1, “Compositions and methods for treating transplants” (priority 2002, published 2004) are described below.

The test system of test [1] is severed limbs. The test is described as follows: Limb replantation after perfusion of amputated hind legs. The format is in vivo. The conditions noted are these: rat hind leg replantation, perfusion every 3 hours. The procedure: Hind legs were amputated from rats, and the major feed arteries for the severed limbs were cannulated for infusion of A-FUV, loaded in a 1 mM ATP solution. The limbs were perfused with A-FUV or control solutions (see Table 1) every 3 hours, or as deemed necessary by the change in tissue ATP levels. The arterial pressure of the limbs were monitored during infusion to decrease the chance of flow-induced injury, and to monitor the overall preservation of the severed limbs (higher perfusion pressures may indicate limb morbidity). Following the preservation period, the limbs were flushed with Ringers to remove traces of A-FUV. The limbs were then surgically reattached, and external indices of limb function after anastomoses were evaluated (limb color, evidence of microthrombi, coagulation, limb temperature). The animals prior to and following replantation received heparin to prevent hemostasis. In addition, animals were placed on antibiotic therapy to reduce infection. Control limbs were perfused with vehicle only, vehicle and ATP only, or vehicle and FUVs only.

Test [2] concerns HUVEC. Nature of the test: 3H-ATP tracer incorporation into HUVEC and repeated washes. The test is classed as cell-based, human. The conditions noted are these: cells washed repeatedly.
Method: To confirm the carboxyfluorescein studies, ^3H-ATP was used as a tracer instead of the fluor. Vesicles were incubated with HUVEC for either 5, 10, 15, 30, 45, 60, 90, 120, or 240 minutes.

As to `Nc1ncnc2c1ncn2[C@@H]1O[C@H](COP(=O)(O)OP(=O)(O)OP(=O)(O)O)[C@@H](O)[C@H]1O` [ATP], in test [1], the Limb outcome is recorded as “necrosis”. Consider `Nc1ncnc2c1ncn2[C@@H]1O[C@H](COP(=O)(O)OP(=O)(O)OP(=O)(O)O)[C@@H](O)[C@H]1O` [free ^3H-ATP, ^3H-ATP], for which, in test [2], the “radioactivity of the cells after repeated washes” value is “complete loss of radioactivity”.
